“And” between values parts separate entries of the source, which are not always exact repeats. Identical values can stand only once.
Tested on: painful spasm caused by intraperitoneal injection of phenylbenzoquinone in mice
Assay: Siegmund test or Writhing test (phenylbenzoquinone-induced painful spasm)
Format: in vivo, mice (male, Swiss strain)
Conditions: esophageal tube, 30 min before phenylbenzoquinone
Description: During said tests, the antispasmodic and analgesic activity of phloroglucinol, of paracetamol, and of phloroglucinol combined with paracetamol was evaluated using the Siegmund test or “Writhing test”. The principle of this test, which is familiar to those skilled in the art, is briefly summarized hereinafter. The intraperitoneal injection of phenylbenzoquinone in mice causes a painful spasm, which can be reduced with antispasmodic substances (causal medication) and analgesic substances (symptomatic medication).
The test was carried out on batches of 10 male mice, of the Swiss strain, having an average weight of 22 g±2. The spasmodic and painful syndrome caused by the intraperitoneal injection of 0.25 ml of the phenylbenzoquinone solution is characterized by hind limb stretching movements and dorso-abdominal musculature twisting movements, which accounted for a period of time of 30 min, starting from 15 min following the administration of the phenylbenzoquinone.
An antispasmodic and analgesic effect manifests itself through a reduction in the number of spasmodic attacks, which is dependent on the dose. For each test, the substance being studied is administered by means of an esophageal tube, 30 min before the phenylbenzoquinone.
For experimental ease, the following were used: • phloroglucinol Lyoc (lyophilizate), and • effervescent paracetamol (tablet); the two substances being perfectly soluble and miscible.
To test the products administered in isolation (prior art), on the one hand, phloroglucinol lyocs (lyophilized systems) were dissolved in distilled water, and on the other hand, effervescent paracetamol tablets were solubilized in distilled water (the solution obtained has a pH of 5).
To test the pharmaceutical compositions of the invention, such phloroglucinol lyocs (lyophilized systems) and such effervescent paracetamol tablets were dissolved and solubilized together. The solution which contains the two active ingredients itself also has a pH of 5.
Given the metabolism in this animal species, the mouse, which is more accelerated than in humans, those skilled in the art, specialists in pharmacology, most commonly use doses which are multiples of the human dose in order to be able to readily objectivize the results.
The results are expressed as percentage of inhibition of the spasm and of the pain relative to control animals which receive only 20 ml/kg of distilled water.

SMILES | % inhibition of the spasm and of the pain relative to control animals (paracetamol 50 mg/kg, mice (repeated in each of four series)) | % inhibition of the spasm and of the pain relative to control animals (phloroglucinol 40 mg/kg, mice) | % inhibition of the spasm and of the pain relative to control animals (phloroglucinol 80 mg/kg, mice) | % inhibition of the spasm and of the pain relative to control animals (phloroglucinol 100 mg/kg, mice) | % inhibition of the spasm and of the pain relative to control animals (phloroglucinol 120 mg/kg, mice)
CC(=O)Nc1ccc(O)cc1 [Paracetamol, 4-acetylaminophenol] | 40% and 39% and 37% |  |  |  | 
Oc1cc(O)cc(O)c1 [Phloroglucinol, 1,3,5-trihydroxy-benzene] |  | 7% | 21% | 27% | 32%
